Source: PubChem BioAssay (NCI)
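All cell lines were grown in 96-well plates and treated with compound for 48 hours. TGI: total growth inhibition.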

Key:
Experiment in all cases: DTP human tumour cell line panel, 48 h
[1] = tested on: HL-60(TB) leukemia
[2] = tested on: SK-OV-3 ovarian
[3] = tested on: TK-10 renal
[4] = tested on: HOP-62 NSCLC
[5] = tested on: ACHN renal
[6] = tested on: SK-MEL-28 melanoma
[7] = tested on: MCF7 breast
[8] = tested on: NCI-H226 lung
[9] = tested on: NCI/ADR-RES ovarian
[10] = tested on: SN12C renal
[11] = tested on: HT29 colon
[12] = tested on: OVCAR-4 ovarian
[13] = tested on: RPMI-8226 leukemia
[14] = tested on: SNB-75 CNS
[15] = tested on: PC-3 prostate
[16] = tested on: OVCAR-3 ovarian
[17] = tested on: T-47D breast
[18] = tested on: A549 NSCLC
[19] = tested on: SR leukemia
[20] = tested on: K-562 leukemia
[21] = tested on: MDA-MB-231 breast
[22] = tested on: UACC-62 melanoma
[23] = tested on: HCT-15 colon
[24] = tested on: UO-31 renal
[25] = tested on: SF-268 CNS
[26] = tested on: CCRF-CEM leukemia
[27] = tested on: SK-MEL-2 melanoma
[28] = tested on: MDA-MB-435
[29] = tested on: BT-549 breast
[30] = tested on: OVCAR-5 ovarian
[31] = tested on: MALME-3M melanoma
[32] = tested on: SF-295 CNS
[33] = tested on: HOP-92 NSCLC
[34] = tested on: HCC-2998 colon
[35] = tested on: SNB-19 CNS
[36] = tested on: MDA-N
[37] = tested on: A498 renal
[38] = tested on: HCT-116 colon
[39] = tested on: MOLT-4 leukemia
[40] = tested on: SK-MEL-5 melanoma
[41] = tested on: KM12 colon
[42] = tested on: 786-0 renal
[43] = tested on: RXF 393 renal
[44] = tested on: M14 melanoma
[45] = tested on: COLO 205 colon
[46] = tested on: OVCAR-8 ovarian
[47] = tested on: LOX IMVI melanoma
[48] = tested on: CAKI-1 renal
[49] = tested on: DU-145 prostate
[50] = tested on: SF-539 CNS
[51] = tested on: HS 578T breast
[52] = tested on: SW-620 colon
[53] = tested on: EKVX NSCLC
[54] = tested on: NCI-H460 lung
[55] = tested on: IGROV1 ovarian
[56] = tested on: NCI-H23 lung
[57] = tested on: NCI-H522 lung
[58] = tested on: UACC-257 melanoma
[59] = tested on: U251 CNS

CCCCC(=O)Nc1ccc2cc(C(=O)OC)c(Cl)nc2n1
TGI [1]: 6.81 µM | TGI [2]: > 100 µM | TGI [3]: > 100 µM | TGI [4]: 20.6 µM | TGI [5]: > 100 µM | TGI [6]: > 100 µM | TGI [7]: > 100 µM | TGI [8]: > 100 µM | TGI [9]: > 100 µM | TGI [10]: > 100 µM | TGI [11]: > 100 µM | TGI [12]: > 100 µM | TGI [13]: > 100 µM | TGI [14]: > 100 µM | TGI [15]: > 74.3 µM | TGI [16]: 17.6 µM | TGI [17]: > 72.5 µM | TGI [18]: > 100 µM | TGI [19]: > 100 µM | TGI [20]: > 100 µM | TGI [21]: > 100 µM | TGI [22]: > 100 µM | TGI [23]: > 100 µM | TGI [24]: 57.7 µM | TGI [25]: > 100 µM | TGI [26]: > 100 µM | TGI [27]: > 100 µM | TGI [28]: > 100 µM | TGI [29]: > 100 µM | TGI [30]: > 100 µM | TGI [31]: > 100 µM | TGI [32]: > 96.7 µM | TGI [33]: > 100 µM | TGI [34]: 52.7 µM | TGI [35]: 38 µM | TGI [36]: > 100 µM | TGI [37]: > 100 µM | TGI [38]: > 100 µM | TGI [39]: > 100 µM | TGI [40]: > 100 µM | TGI [41]: 10.1 µM | TGI [42]: > 100 µM | TGI [43]: > 100 µM | TGI [44]: > 100 µM | TGI [45]: > 45.3 µM | TGI [46]: > 100 µM | TGI [47]: > 100 µM | TGI [48]: > 100 µM | TGI [49]: 10.1 µM | TGI [50]: > 100 µM | TGI [51]: 46.9 µM | TGI [52]: > 100 µM | TGI [53]: > 100 µM | TGI [54]: > 100 µM | TGI [55]: > 100 µM | TGI [56]: > 100 µM | TGI [57]: > 100 µM | TGI [58]: > 100 µM | TGI [59]: > 78 µM

Cc1ccc(S(=O)(=O)/N=C(\NO)Nc2ccc(Cl)c(Cl)c2)cc1
TGI [1]: 5.42 µM | TGI [2]: 28.5 µM | TGI [3]: 27.8 µM | TGI [4]: 27.4 µM | TGI [5]: 24.9 µM | TGI [6]: 13.3 µM | TGI [7]: 41.3 µM | TGI [8]: 34.7 µM | TGI [9]: 46.3 µM | TGI [10]: 5.58 µM | TGI [11]: 25.5 µM | TGI [12]: 21.8 µM | TGI [13]: 30.9 µM | TGI [14]: 17.6 µM | TGI [15]: 18.4 µM | TGI [16]: 16.9 µM | TGI [17]: 37 µM | TGI [18]: 26.9 µM | TGI [19]: 21.5 µM | TGI [20]: 35 µM | TGI [21]: 24.3 µM | TGI [22]: 24.1 µM | TGI [23]: 28.4 µM | TGI [24]: 18.3 µM | TGI [25]: 19.9 µM | TGI [26]: 15.9 µM | TGI [27]: 22.4 µM | TGI [28]: 13.6 µM | TGI [29]: 23.8 µM | TGI [30]: 12.6 µM | TGI [31]: 7.41 µM | TGI [32]: 31.8 µM | TGI [33]: 11.8 µM | TGI [34]: 4.93 µM | TGI [35]: 21.4 µM | TGI [36]: 14.5 µM | TGI [37]: 23.7 µM | TGI [38]: 17.7 µM | TGI [39]: 5.45 µM | TGI [40]: 4.82 µM | TGI [41]: 25.4 µM | TGI [42]: 16.2 µM | TGI [43]: 24.2 µM | TGI [44]: 18.3 µM | TGI [45]: 30.8 µM | TGI [46]: 24.4 µM | TGI [47]: 19 µM | TGI [48]: 19.2 µM | TGI [49]: 24.6 µM | TGI [50]: 24.5 µM | TGI [51]: 27.3 µM | TGI [52]: 25.4 µM | TGI [53]: 19.9 µM | TGI [54]: 23.7 µM | TGI [55]: 31.3 µM | TGI [56]: 37.2 µM | TGI [57]: 19.1 µM | TGI [58]: 15.3 µM | TGI [59]: 16.8 µM
